Measurements published in patent US10058558B2, “Pharmaceutical composition comprising N1-cyclic amine-N5-substituted biguanide derivatives as an ingredient for preventing or treating fibrosis” (ImmunoMet Therapeutics Inc., priority 2013, dated 2018).
Where two headings read alike, the source gives them in different places.

Tests used:
[1] = test system: peritoneal mesothelial cells
Procedure: That is, this experiment was designed to examine the morphological change in the peritoneal mesothelial cells by high glucose treatment along with the expression levels of mRNA and proteins of fibrosis-mediating materials and the ECM-related materials.
To this end, the peritonea of the male wistar rats were dissected and their peritoneal mesothelial cells were subjected to primary culture using 0.25% trypsin-EDTA. The experiment was performed after dividing them into the following three groups:

Snail = Snail expression in MCF7 cells (EMT-suppressing effect)

SMILES: CC(=O)O.N=C(NC(=N)N1CCCC1)Nc1ccc(OC(F)(F)F)cc1 [Example 44, N1-pyrrolidine-N5-(4-trifluoromethoxy)phenyl biguanide acetate [N-(N-(4-(trifluoromethoxy)phenyl)carbamimidoyl)pyrrolidine-1-carboximidamideacetate]]
- morphology of peritoneal mesothelial cells turned into myofibroblasts by high glucose treatment [1]: returned to maintain a shape similar to that of the normal ones (a cobblestone shape)
- suppression of the expression of Snail (Snail): strongly suppress the expression of Snail

SMILES: [H]/N=C(/N)N/C(=N/[H])NCCc1ccccc1 [phenformin]
- suppression of the expression of Snail (Snail; MCF7 cells, 10 μM, FIG. 1): did not show any effect regarding the suppression of Snail expression

SMILES: CN(C)C(=N)N=C(N)N [metformin]
- suppression of the expression of Snail (Snail; MCF7 cells, 1000 μM, FIG. 1): failed to suppress the expression of Snail
